Test results published in the supplement of paper PMC10307832.

Experiments:
Assay in all cases: relative viability (nuclei count vs DMSO), 5 days (fraction); higher = more cells survive
[1] = compound: CCC1=CN=CN=C1N2CCN(CC2)CC3=NC4=C(N3)C=C(C=C4)C(F)(F)F + CC1(C)CCC(c2ccc(Cl)cc2)=C(CN2CCN(c3ccc(C(=O)NS(=O)(=O)c4ccc(N[C@H](CCN5CCOCC5)CSc5ccccc5)c(S(=O)(=O)C(F)(F)F)c4)cc3)CC2)C1 [Navitoclax] (partner 0.5 µM)
Summary of the method: (§1)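 Relative viability is defined as nuclei in treated wells over nuclei in vehicle wells. Duplicate plates were run and medians reported. Lung cancer cell lines in 1536-well plates were dosed by pin tool one day after seeding, with one drug or with a fixed anchor-drug dose plus five library-drug doses (not always all listed) in √10 steps, and nuclei were counted after 5 days.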

[2] = compound: CCn1c(-c2nonc2N)nc2cnc(Oc3cccc(NC(=O)c4ccc(OCCN5CCOCC5)cc4)c3)cc21 + CC(C)C[C@H](NC(=O)[C@H](Cc1ccccc1)NC(=O)c1cnccn1)B(O)O [Bortezomib] (partner 0.002 µM)
Summary of the method: as §1

[3] = compound: CCn1c(-c2nonc2N)nc2cnc(Oc3cccc(NC(=O)c4ccc(OCCN5CCOCC5)cc4)c3)cc21 + N=C(N)NC(=N)NCCc1ccccc1 [Phenformin] (partner 250 µM)
Summary of the method: as §1

Mirin + Tozasertib = compound: N=C1NC(=O)/C(=C/c2ccc(O)cc2)S1 [Mirin] + Cc1cc(Nc2cc(N3CCN(C)CC3)nc(Sc3ccc(NC(=O)C4CC4)cc3)n2)n[nH]1 [Tozasertib] (partner 0.1 µM)
Summary of the method: as §1

For UMC-11, which relative viability ([1]; first compound 0.04 µM) is on record?
Its relative viability is 0.319.

What about the relative viability ([1]; first compound 0.1265 µM) of the same cell line?
The relative viability was 0.304.

What about the relative viability ([1]; first compound 0.4 µM) of the same cell line?
The relative viability was 0.312.

What about the relative viability ([1]; first compound 1.265 µM) of the same cell line?
The relative viability was 0.284.

And the relative viability ([1]; first compound 4 µM)?
The relative viability was 0.305.

And the relative viability ([2]; first compound 0.04 µM)?
Its relative viability is 0.999.

And the relative viability ([2]; first compound 0.1265 µM)?
Its relative viability is 0.439.

And the relative viability ([2]; first compound 0.4 µM)?
The relative viability was 0.312.

What about the relative viability ([2]; first compound 1.265 µM) of the same cell line?
The relative viability was 0.161.

What about the relative viability ([2]; first compound 4 µM) of the same cell line?
Its relative viability is 0.135.

And the relative viability ([3]; first compound 0.04 µM)?
The relative viability was 0.304.

What about the relative viability ([3]; first compound 0.1265 µM) of the same cell line?
Its relative viability is 0.25.

And the relative viability ([3]; first compound 0.4 µM)?
The relative viability was 0.198.

And the relative viability ([3]; first compound 1.265 µM)?
Its relative viability is 0.225.

What about the relative viability ([3]; first compound 4 µM) of the same cell line?
Its relative viability is 0.129.

What about the relative viability (Mirin + Tozasertib; first compound 0.25 µM) of the same cell line?
Its relative viability is 0.196.

And the relative viability (Mirin + Tozasertib; first compound 2.5 µM)?
The relative viability was 0.203.

What about the relative viability (Mirin + Tozasertib; first compound 7.906 µM) of the same cell line?
The relative viability was 0.181.

What about the relative viability (Mirin + Tozasertib; first compound 25 µM) of the same cell line?
The relative viability was 0.189.
